Assay results taken from US20110053897A1 (IRM LLC, priority 2009, published 2011).

target: T1, Syk kinase (Homo sapiens, UniProt P43405); assay: Syk kinase inhibition, Caliper LabChip off-chip mobility-shift kinase assay; assay type: biochemical; conditions: read-out: Syk Enzyme IC50
T1 construct: purchased
Summary of the method: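 Purified Syk pre-incubated 15 min with compound in 100 mM HEPES pH 7.5, 1 mM DTT, 10 mM MgCl2 or MnCl2, 0.002% Brij-35, then 1.5 μM fluorescein peptide and ATP at apparent KM added; 1–1.5 h at room temperature, 4% DMSO, EDTA stop. Microfluidic mobility-shift product/substrate conversion gave % inhibition; IC50 from 12-point series (10–0.00003 μM) by 4-parameter fit.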

IC50 | SMILES
1630 nM | Nc1nc(Nc2cnccn2)cc2ccn(Cc3ccccc3)c(=O)c12 [compound 478]
599 nM | Cn1ccc2cc(Nc3cnccn3)nc(N)c2c1=O [compound 479]
15 nM | Cc1ccnc(Nc2cc3cc[nH]c(=O)c3c(Nc3ccc(N4CCOCC4)cc3)n2)c1 [compound 480]
122 nM | O=c1[nH]ccc2cc(Nc3cc(Cl)ccn3)nc(NC3CC3)c12 [compound 481]
62 nM | Cc1ccnc(Nc2cc3ccn(C)c(=O)c3c(Nc3ccc(C(N)=O)cc3)n2)c1 [compound 483]
54 nM | CC(C)Nc1nc(Nc2cc(Cl)ccn2)cc2cc[nH]c(=O)c12 [compound 484]
45 nM | Cc1ccnc(Nc2cc3cc[nH]c(=O)c3c(NC3CCC3)n2)c1 [compound 485]
45 nM | Cc1ccnc(Nc2cc3ccn(C)c(=O)c3c(NC(C)(C)CO)n2)c1 [compound 486]
102 nM | Cc1ccnc(Nc2cc3ccn(CCO)c(=O)c3c(NC(C)(C)C)n2)c1 [compound 487]
21 nM | Cc1ccnc(Nc2cc3cc[nH]c(=O)c3c(NC(C)(C)CO)n2)c1 [compound 488]
124 nM | Cc1ccnc(Nc2cc3ccn(C)c(=O)c3c(NC3CCC3)n2)c1 [compound 489]
32 nM | Cc1ccnc(Nc2cc3cc[nH]c(=O)c3c(NC(C)C)n2)c1 [compound 490]
63 nM | CCc1ccnc(Nc2cc3cc[nH]c(=O)c3c(NC(C)C)n2)c1 [compound 491]
54 nM | CCn1ccc2cc(Nc3cc(C)ccn3)nc(NC(C)(C)CO)c2c1=O [compound 492]
214 nM | Cc1ccnc(Nc2cc3ccn(C)c(=O)c3c(NCC(F)(F)F)n2)c1 [compound 493]
75 nM | Cc1ccnc(Nc2cc3cc[nH]c(=O)c3c(NC(C)(C)C)n2)c1 [compound 494]
52 nM | Cc1ccnc(Nc2cc3ccn(CCO)c(=O)c3c(NC(C)(C)CO)n2)c1 [compound 495]
115 nM | Cc1ccnc(Nc2cc3cc[nH]c(=O)c3c(NCC(O)c3cccc(Cl)c3)n2)c1 (centres unmarked) [compound 496]
111 nM | Cc1cc(Nc2cc3ccn(CCO)c(=O)c3c(NC(C)(C)CO)n2)ncc1Cl [compound 497]
76 nM | Cc1cc(Nc2cc3ccn(CCO)c(=O)c3c(NC(C)(C)CO)n2)ncc1F [compound 498]
31 nM | Cc1ccnc(Nc2cc3ccn(C)c(=O)c3c(NC(C)(C)CO)n2)c1 [compound 499]

IC50 | SMILES
69 nM | Cc1ccnc(Nc2cc3ccn(C)c(=O)c3c(Nc3ccc(C(=O)N4CCOCC4)cc3)n2)c1 [compound 500]
38 nM | Cc1ccnc(Nc2cc3cc[nH]c(=O)c3c(NC[C@H](C)O)n2)c1 [compound 501]
164 nM | CCCc1ccnc(Nc2cc3cc[nH]c(=O)c3c(NC(C)C)n2)c1 [compound 502]
84 nM | Cc1ccnc(Nc2cc3ccn(C)c(=O)c3c(NCCCO)n2)c1 [compound 503]
48 nM | Cc1ccnc(Nc2cc3cc[nH]c(=O)c3c(NCCCO)n2)c1 [compound 504]
63 nM | Cc1ccnc(Nc2cc3cc[nH]c(=O)c3c(NC[C@@H]3CCCO3)n2)c1 [compound 505]
129 nM | Cc1ccnc(Nc2cc3ccn(C)c(=O)c3c(NC(C)(C)C)n2)c1 [compound 506]
136 nM | Cc1ccnc(Nc2cc3ccn(C)c(=O)c3c(Nc3cccc(C(N)=O)c3)n2)c1 [compound 507]
153 nM | Cc1ccnc(Nc2cc3ccn(C)c(=O)c3c(NC(C)C)n2)c1 [compound 508]
143 nM | O=c1[nH]ccc2cc(Nc3ccccn3)nc(Nc3ccc(N4CCOCC4)cc3)c12 [compound 509]
34 nM | CC(C)Nc1nc(Nc2cc(CO)ccn2)cc2cc[nH]c(=O)c12 [compound 510]
86 nM | Cc1ccnc(Nc2cc3ccn(C)c(=O)c3c(NC[C@@H](C)O)n2)c1 [compound 511]
158 nM | Cc1ccnc(Nc2cc3ccn(C)c(=O)c3c(NC[C@H]3CCCO3)n2)c1 [compound 512]
70 nM | Cc1ccnc(Nc2cc3cc[nH]c(=O)c3c(NC[C@@H](C)O)n2)c1 [compound 513]
51 nM | CC(C)Nc1nc(Nc2cc(C(N)=O)ccn2)cc2cc[nH]c(=O)c12 [compound 514]
301 nM | N#Cc1ccc(Nc2cc3cc[nH]c(=O)c3c(Nc3ccc(N4CCOCC4)cc3)n2)nc1 [compound 515]
152 nM | Cc1ccnc(Nc2cc3cc[nH]c(=O)c3c(NCC(F)(F)F)n2)c1 [compound 516]
386 nM | O=c1[nH]ccc2cc(Nc3cc(C(F)(F)F)ccn3)nc(NC3CC3)c12 [compound 517]
59 nM | O=c1[nH]ccc2cc(Nc3cc(CO)ccn3)nc(NC3CC3)c12 [compound 518]
302 nM | [2H]C([2H])([2H])n1ccc2cc(Nc3cc(Cl)ccn3)nc(NC3CC3)c2c1=O [compound 519]
183 nM | CCN1CCN(CCc2ccc(Nc3nc(Nc4cc(C(F)(F)F)ccn4)cc4cc[nH]c(=O)c34)cc2)CC1 [compound 520]

IC50 | SMILES
131 nM | CCc1ccnc(Nc2cc3cc[nH]c(=O)c3c(NC3CC3)n2)c1 [compound 521]
199 nM | O=c1[nH]ccc2cc(Nc3ccccn3)nc(NC3CC3)c12 [compound 524]
242 nM | CCn1ccc2cc(Nc3cc(C)ccn3)nc(NC(C)(C)C)c2c1=O [compound 525]
803 nM | O=c1[nH]ccc2cc(Nc3ccc(Cl)cn3)nc(Nc3ccc(N4CCOCC4)cc3)c12 [compound 526]
120 nM | COCCNc1nc(Nc2cc(C)ccn2)cc2cc[nH]c(=O)c12 [compound 527]
374 nM | CCC(C)(C)Nc1nc(Nc2cc(C)ccn2)cc2cc[nH]c(=O)c12 [compound 528]
97 nM | COC[C@H](C)Nc1nc(Nc2cc(C)ccn2)cc2cc[nH]c(=O)c12 [compound 530]
296 nM | [2H]C([2H])([2H])n1ccc2cc(Nc3cc(C)c(F)cn3)nc(NC(C)(C)C)c2c1=O [compound 531]
250 nM | CCCCNc1nc(Nc2cc(C)ccn2)cc2cc[nH]c(=O)c12 [compound 532]
382 nM | Cc1cccnc1Nc1cc2cc[nH]c(=O)c2c(Nc2ccc(N3CCOCC3)cc2)n1 [compound 533]
129 nM | Cc1ccnc(Nc2cc3ccn(C)c(=O)c3c(NC3CC3)n2)c1 [compound 534]
206 nM | Cc1ccnc(Nc2cc3cc[nH]c(=O)c3c(NC3CC3)n2)c1 [compound 535]
398 nM | CCN1CCN(CCc2ccc(Nc3nc(Nc4ccc(Cl)cn4)cc4cc[nH]c(=O)c34)cc2)CC1 [compound 536]
502 nM | [2H]C([2H])([2H])n1ccc2cc(Nc3cc(C)c(Cl)cn3)nc(NC(C)(C)C)c2c1=O [compound 537]
361 nM | Cc1cc(Nc2nc(Nc3ccc(C(N)=O)cn3)cc3cc[nH]c(=O)c23)ccc1N1CCO[C@H](C)C1 [compound 538]
915 nM | Cc1ccnc(Nc2cc3cc[nH]c(=O)c3c(NC[C@@H](O)c3cccc(Cl)c3)n2)c1 [compound 539]
206 nM | CC(C)Nc1nc(Nc2ccc(C(N)=O)cn2)cc2cc[nH]c(=O)c12 [compound 540]
1120 nM | CC(=O)N1CCN(CCc2ccc(Nc3nc(Nc4ccc(C)cn4)cc4cc[nH]c(=O)c34)cc2)CC1 [compound 541]
830 nM | [2H]C([2H])([2H])n1ccc2cc(Nc3cc(Cl)ccn3)nc(NC(C)(C)C)c2c1=O [compound 542]
810 nM | Cn1ccc2cc(Nc3cc(Cl)ccn3)nc(NC3CCC3)c2c1=O [compound 544]
